Here are results for three compounds from US7223547B2, “Polypeptides having a functional domain of interest and methods of identifying and using same” (Cytogen Corporation, priority 1995, dated 2007).

For series [1] the following is noted: patients to whom the drug is administered; cited from earlier work.
Series [2] concerns virus that causes hepatitis B. Particulars: at given dosages; cited from earlier work.
Another series concerns the target SH3 domain of Abl (Homo sapiens, UniProt P00519). As to the kind of experiment: Stated SH3 domain binding of recognition unit.

* marks the point of attachment. Biotin = O=C1N[C@H]2[C@H](CS[C@H]2CCCCC(=O)*)N1

Chain of SH3 domain of Abl (P00519 61-121 limits assumed): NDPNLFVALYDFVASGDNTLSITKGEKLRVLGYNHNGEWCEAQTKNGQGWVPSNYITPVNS

Consider `O=c1[nH]c(=O)n([C@@H]2O[C@H](CO)[C@@H](O)[C@@H]2F)cc1I` [FIAU], for which the “suspected toxic side effects” value in series [1] is “liver failure in certain patients”. In series [2], the “effectiveness against the virus that causes hepatitis B” value is given as “effective”. “Biotin-SRPPRWSPPPVPLPTSLDSR-NH2 [PXXP.ABL.G1/2M]”: the “binding to the SH3 domain of Abl” value at SH3 domain of Abl is listed as “bind”. “Biotin-SRSLSEVSPKPPIRSVSLSR-NH2 [PXXP.NCK.S1/4]”: the “binding to the SH3 domain of Nck” value with SH3 domain of Nck is “bind”.
